Our source for the MIC, Activity and inhibition values is ChEMBL document CHEMBL4715867, “Amycolasporins and Dibenzoyls from Lichen-Associated Amycolatopsis hippodromi and Their Antibacterial and Anti-inflammatory Activities” (J Nat Prod, 2020).

Values after ≈ are worked out from the molar mass of the structure shown. Active and inactive are the calls of the source. The calls are words filed in the database; no cut-off is given here.

One assay relates to Staphylococcus aureus. Kind of assay: Antibacterial activity against Staphylococcus aureus ATCC 25923 after 24 hrs by microbroth dilution method. It is filed as functional. For orientation: In broth dilution the organism is exposed to a series of concentrations in liquid medium.
For a further assay, the system named is Candida albicans. Description: Antifungal activity against Candida albicans MYA-2867 at 100 ug/ml after 48 hrs by microbroth dilution method. It is filed as functional, organism-based. As to conditions: dose 100.0 µg/ml.
The next assay relates to Cryptococcus neoformans. Kind of assay: Antifungal activity against Cryptococcus neoformans ATCC 208821 at 100 ug/ml after 72 hrs by microbroth dilution method. The format is functional, organism-based. As to conditions: dose 100.0 µg/ml.
Another assay has as its system Candida parapsilosis. Description: Antifungal activity against Candida parapsilosis ATCC 22019 at 100 ug/ml after 48 hrs by microbroth dilution method. The format is functional, organism-based. As to conditions: dose 100.0 µg/ml.
A further assay concerns Bacillus subtilis. Kind of assay: Antibacterial activity against Bacillus subtilis ATCC 6633 after 24 hrs by microbroth dilution method. The format is functional.
A further assay has as its system Escherichia coli. Kind of assay: Antibacterial activity against Escherichia coli ATCC 25922 after 24 hrs by microbroth dilution method. The format is functional.
Assay [1] has as its system RAW264.7. Kind of assay: Inhibition of LPS-induced NO production in mouse RAW264.7 cells preincubated for 2 hrs followed by LPS-stimulation and measured after 24 hrs by Griess reagent based assay. As to conditions: dose 3.3-33 µM, time 26.0 hrs. The format is functional, cell-based. Background: Griess reagent forms a coloured azo dye with nitrite.
Assay [2] has as its system RAW264.7. Kind of assay: Inhibition of LPS-induced NO production in mouse RAW264.7 cells assessed as reduction in iNOS protein expression preincubated for 2 hrs followed by LPS-stimulation and measured after 24 hrs by Western blot analysis. It is filed as functional, cell-based. As to conditions: dose 3.3-33 µM, time 26.0 hrs.

What is called MIC is the lowest concentration that inhibits growth of the organism. Low readings indicate a more susceptible organism, high ones a less susceptible organism. With `NC(=O)c1cc2c(cn1)CCC2=O`, the MIC against Staphylococcus aureus, with Bacillus subtilis and with Escherichia coli was 25 µg/mL (≈ 142 µM) throughout. Besides, the result in the assay on Candida albicans, in the assay on Cryptococcus neoformans and with Candida parapsilosis was inactive.

Regarding `CO[C@@H]1CC(=O)c2cc(C(N)=O)ncc21`, the MIC with Staphylococcus aureus, in the assay on Bacillus subtilis and in the assay on Escherichia coli was 25 µg/mL (≈ 121 µM) each time. Also, the result in the assay on Candida albicans, in the assay on Cryptococcus neoformans and in the assay on Candida parapsilosis was inactive.

As for `COC(=O)[C@]1(O)C=Cc2cnc(C(N)=O)cc21`, the minimum inhibitory concentration (MIC) with Staphylococcus aureus, against Bacillus subtilis and against Escherichia coli was 25 µg/mL (≈ 107 µM) in each case. In addition, the result in the assay with Candida albicans, in the assay with Cryptococcus neoformans and in the assay on Candida parapsilosis was inactive. The inhibition result in the assay with RAW264.7 [1] and in the assay with RAW264.7 [2] was “Dose-dependent effect” each time.

Turning to `COc1ccc(C(=O)Cc2ccc(O)cc2)c(O)c1`, the inhibition result in the assay with RAW264.7 [1] and in the assay on RAW264.7 [2] was “Dose-dependent effect” each time.
